Assays:
Assay in all cases: drug sensitivity score (DSS) (DSS (unitless, 0-50 scale)); higher = more sensitive (stronger viability inhibition); extreme values may be limits of the assay
Settings in all cases: 72 h; culture: 2D
WM852 = tested on: WM852
Method in brief: (§1)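 Melanoma cell lines and patient-derived melanoma cultures at 1000–1500 cells per well were exposed in 2D, in 384-well plates, to a 527-compound oncology library at five concentrations spanning a 10,000-fold range for 72 h at 37 °C. CellTiter-Glo luminescence then measured viability. From dose-response curves fitted in the in-house Breeze software, a drug sensitivity score, a modified area-under-curve measure, was obtained.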

WM165 = tested on: WM165
Method in brief: as §1

FM-MEL-2 = tested on: FM-MEL-2
Method in brief: as §1

FM-MEL-3 = tested on: FM-MEL-3
Method in brief: as §1

FM-MEL-6 = tested on: FM-MEL-6
Method in brief: as §1

Bowes = tested on: Bowes
Method in brief: as §1

SK-MEL-28 = tested on: SK-MEL-28
Method in brief: as §1

SK-MEL-2 = tested on: SK-MEL-2
Method in brief: as §1

| Structure (SMILES) | drug sensitivity score (WM852) | drug sensitivity score (WM165) | drug sensitivity score (FM-MEL-2) | drug sensitivity score (FM-MEL-3) | drug sensitivity score (FM-MEL-6) | drug sensitivity score (Bowes) | drug sensitivity score (SK-MEL-28) | drug sensitivity score (SK-MEL-2) |
| --- | --- | --- | --- | --- | --- | --- | --- | --- |
| CC(C)Oc1ccc(C(=O)N[C@H](CNC(=O)CN(C)C)Cc2ccc(-c3cn4cccc([C@H](C)O)c4n3)cc2)cc1Cl | 9.5 | 13.7 | 7.3 | 6.3 | 4.7 | 19.2 | 5.3 | 13.5 |
| C[C@@]1(C(=O)Nc2ccc(F)nc2)CCCN1c1nc(Nc2cc(C3CC3)n[nH]2)c2cccn2n1 | 6.9 | 13.4 | 5 | 17.9 | 6.1 | 11.7 | 2 | 2.9 |
| Cc1ncc(Cl)cc1NCc1ccc(C(=O)N[C@@H](CC2CCCC2)C(=O)NC2CC2)s1 | 0 | 0 | 0 | 4.6 | 0 | 0 | 0 | 0 |
| Cn1cc(C2=Nc3cc(NC(=O)C(N)C4CCCCC4)cc4c3C2=CNNC4=O)cn1 (stereo not given) | 12.5 | 13.5 | 3.1 | 9.7 | 11.1 | 15.5 | 2.3 | 11 |
| N#Cc1ccc(COC[C@H]2O[C@@H](n3c(NCc4ccc(Cl)c(Cl)c4)nc4c(N)ncnc43)[C@H](O)[C@@H]2O)cc1 | 0 | 5.1 | 4.2 | 6.8 | 1 | 2.7 | 5.5 | 0 |
| COc1ccc(C[C@H](NC(=O)[C@H](C)NC(=O)CN2CCOCC2)C(=O)N[C@@H](Cc2ccccc2)C(=O)C2(C)CO2)cc1 (stereo in doubt) [ONX-0914] | 16.6 | 18.8 | 13.5 | 19.2 | 18.7 | 21.2 | 19.4 | 15.6 |
| Cn1cc(C[C@@H](N)C(=O)O)c2ccccc21 [1-methyl-D-tryptophan] | 0 | 0 | 0 | 0 | 0.6 | 0 | 0 | 0 |
| CC/C(=C(\c1ccc(O)cc1)c1ccc(OCCN(C)C)cc1)c1ccccc1 [4-hydroxytamoxifen] | 7.9 | 3.9 | 6.6 | 7.4 | 7.8 | 0 | 4.5 | 2.8 |
| Nc1ncnc2c1nc(N)n2[C@@H]1O[C@H](CO)[C@@H](O)[C@H]1O [8-amino-adenosine] | 18.1 | 23.2 | 19.4 | 18.5 | 20.5 | 16.3 | 22.6 | 20.9 |
| Nc1ncnc2c1nc(Cl)n2[C@@H]1O[C@H](CO)[C@@H](O)[C@H]1O [8-chloro-adenosine] | 4.6 | 14.8 | 0.9 | 3.3 | 7.5 | 5.2 | 5.1 | 7.7 |
| COc1cc2c(cc1OCCCN1CCCC1)N=C(N)C21CCC1 [A-366] | 2.7 | 2.3 | 0 | 0.4 | 0.5 | 3.8 | 0.6 | 0 |
| COc1ccc(S(=O)(=O)Nc2cccnc2Nc2ccc(O)cc2)cc1 [ABT-751] | 8.9 | 10.3 | 4 | 5.7 | 9.2 | 11 | 5.7 | 9 |
| C[C@H](Nc1ncnc2[nH]cnc12)c1cc2ccc(F)cc2nc1-c1ccccn1 [AMG319] | 0 | 0 | 1.7 | 0 | 0.6 | 0 | 0 | 0 |
| CC(C)[C@@H](CS(=O)(=O)C(C)C)N1C(=O)[C@@](C)(CC(=O)O)C[C@H](c2cccc(Cl)c2)[C@H]1c1ccc(Cl)cc1 [AMG-232] | 0 | 19 | 1.8 | 10.5 | 0 | 0 | 0 | 0 |
| COCCOc1cnc2ccn([C@H](C)c3nnc4c(F)cc(-c5cnn(C)c5)cn34)c(=O)c2c1 [AMG-337] | 0 | 0 | 0 | 0 | 0 | 0 | 0 | 0 |
| CC1CCC(n2c3cnccc3c3cnc(Nc4ccc5c(n4)CCN(C(=O)CO)C5)nc32)CC1 (stereo not given) [AMG-925] | 1.8 | 0 | 0.7 | 0 | 0.7 | 0 | 0 | 0 |
| COCC1(CO)C(=O)C2CCN1CC2 (stereo not given) [APR-246] | 0 | 0 | 0 | 0 | 0 | 0 | 0 | 0 |
| CC(C)[C@H](C(=O)Nc1ccc(C(=O)NO)cc1)c1ccccc1 [AR-42] | 3.9 | 14 | 9.8 | 11.8 | 11.6 | 6 | 10.3 | 12.7 |

| Structure (SMILES) | drug sensitivity score (WM852) | drug sensitivity score (WM165) | drug sensitivity score (FM-MEL-2) | drug sensitivity score (FM-MEL-3) | drug sensitivity score (FM-MEL-6) | drug sensitivity score (Bowes) | drug sensitivity score (SK-MEL-28) | drug sensitivity score (SK-MEL-2) |
| --- | --- | --- | --- | --- | --- | --- | --- | --- |
| Cc1sc2c(c1C)C(c1ccc(Cl)cc1)=N[C@@H](CC(=O)Nc1ccc(OCCOCCOCCOCCNc3cccc4c3C(=O)N(C3CCC(=O)NC3=O)C4=O)cc1)c1nnc(C)n1-2 (stereo not given in full) [ARV-825] | 0 | 8.3 | 4.7 | 4.8 | 6.1 | 14.2 | 3.4 | 2.9 |
| COc1cc(N2CCC(N3CCN(C)CC3)CC2)ccc1Nc1ncnc(Nc2ccccc2S(=O)(=O)C(C)C)n1 [ASP3026] | 5.2 | 5.5 | 2.4 | 2.6 | 4.4 | 4.8 | 2 | 2.7 |
| O=C(NC1CCNCC1)c1n[nH]cc1NC(=O)c1c(Cl)cccc1Cl [AT7519] | 15.3 | 20 | 7.7 | 12.8 | 19.3 | 21.4 | 10.5 | 15.1 |
| O=C(Nc1c[nH]nc1-c1nc2ccc(CN3CCOCC3)cc2[nH]1)NC1CC1 [AT9283] | 2.9 | 8 | 0 | 0 | 0 | 8 | 2.9 | 2.3 |
| CN[C@@H](C)C(=O)N[C@H]1CN(C(=O)CC(C)C)CC[C@H]2CC[C@@H](C(=O)NC(c3ccccc3)c3ccccc3)N2C1=O [AT-406] | 0 | 0 | 9.7 | 0 | 2.2 | 1.9 | 0 | 0.1 |
| CC[C@H](CC#N)OC(=O)N[C@@H](C)c1cccc(NC(=O)Nc2ccc(-c3cnco3)c(OC)c2)c1 [AVN944] | 8.4 | 18.9 | 8.1 | 10.5 | 12.8 | 10.4 | 13.3 | 4.8 |
| COc1cc(N2CCN(C)CC2)ccc1Nc1nccc(-c2cn(C)c3cnccc23)n1 [AZ191] | 1.9 | 2.7 | 2.4 | 0.6 | 0 | 3.4 | 0 | 0 |
| COc1cc(OC2CCN(C)CC2)ccc1Nc1ncc2c(n1)n(C1CCCC1)c(=O)n2C [AZ 3146] | 3.2 | 5.5 | 3.3 | 2.2 | 3 | 3.3 | 1.7 | 1.3 |
| CN(C)CCCOc1ccc(-c2ccc3ncc4c(c3c2)n(C2CCOCC2)c(=O)n4C)cn1 [AZD0156] | 0 | 0.3 | 0.4 | 0 | 0 | 0 | 0 | 0 |
| N[C@@H]1CCCN(c2c(/C=C3\SC(=O)NC3=O)cccc2-c2ccccc2)C1 [AZD1208] | 0 | 0 | 2.8 | 2 | 0.8 | 0 | 0.4 | 0 |
| Cc1cc(Nc2nc(N[C@@H](C)c3ncc(F)cn3)ncc2Cl)[nH]n1 [AZD1480] | 0 | 0 | 0 | 0 | 0 | 0 | 0 | 0 |
| COc1cc2ncnc(Nc3cccc(Cl)c3F)c2cc1OC(=O)N1CCN(C)C[C@H]1C [AZD3759] | 0 | 0 | 0 | 0 | 0 | 0 | 0 | 0 |
| Cc1[nH]nc(C(F)(F)F)c1Cc1sc2c(c1C(=O)N1C[C@](C)(O)CO1)c(=O)n(C)c(=O)n2C(C)C [AZD3965] | 0 | 0 | 0 | 0 | 0.3 | 8 | 0 | 0 |
| COc1cc(CCc2cc(NC(=O)c3ccc(N4CC(C)NC(C)C4)cc3)n[nH]2)cc(OC)c1 (stereo not given) [AZD4547] | 0 | 0 | 0 | 0 | 0 | 0 | 0 | 0 |
| C[C@@H]1COCCN1c1cc(C2([S@](C)(=N)=O)CC2)nc(-c2cc[nH]c3nccc2-3)n1 [AZD6738] | 14.8 | 10.2 | 3.4 | 9.7 | 7 | 19.3 | 2.7 | 10.8 |
| CN(C)C(=O)c1ccc(S(=O)(=O)c2ccc(NC(=O)[C@@](C)(O)C(F)(F)F)c(Cl)c2)cc1 [AZD7545] | 1.1 | 0 | 0 | 0 | 0 | 2.2 | 0 | 0 |
| NC(=O)Nc1cc(-c2cccc(F)c2)sc1C(=O)N[C@H]1CCCNC1 [AZD7762] | 8.4 | 4.7 | 0.2 | 6.1 | 6.5 | 7.7 | 2.2 | 4.2 |

Reference: the supplement of paper PMC8633005
